Reference: US20240158438A1, “POLYPEPTIDE COMPOUND AND APPLICATION THEREOF” (CHENGDU SINTANOVO BIOTECHNOLOGY CO., LTD., priority 2021, published 2024)
Starred links: 1 amine or outer side, 2 acyl side, 3 side chain; linkers in the order of their positions; H or OH if unused. Non-standard residues stand in square brackets, D forms with d. Residues, ends and D or L forms follow the SMILES beside them. *: point of attachment. Azetidine3carboxylic = O=C(C1CN([*:1])C1)[*:2]; Pyrrolidine3carbonyl(3S) = O=C([C@H]1CCNC1)*; dBta = N[C@H](Cc1csc2ccccc12)C(=O)O; Ac4c(3-oxa) = NC1(C(=O)O)COC1; X1 = N[C@H]1CCC[C@H]1C(=O)*; X2 = O=C(C12CNC[C@@H]1C2)*; dAbu = CC[C@@H](N)C(=O)O; Api = NC1(C(=O)O)CCNCC1; dAze = O=C(O)[C@H]1CCN1; X3 = NCC1(C(=O)*)CCC1; βAla = NCCC(=O)O

Assays:
CYP 2D6 = CYP 2D6 (Homo sapiens (Human), UniProt P10635); type: in vitro ADME; conditions: microsomes, 10 min
Sequence of CYP 2D6 (P10635 whole entry): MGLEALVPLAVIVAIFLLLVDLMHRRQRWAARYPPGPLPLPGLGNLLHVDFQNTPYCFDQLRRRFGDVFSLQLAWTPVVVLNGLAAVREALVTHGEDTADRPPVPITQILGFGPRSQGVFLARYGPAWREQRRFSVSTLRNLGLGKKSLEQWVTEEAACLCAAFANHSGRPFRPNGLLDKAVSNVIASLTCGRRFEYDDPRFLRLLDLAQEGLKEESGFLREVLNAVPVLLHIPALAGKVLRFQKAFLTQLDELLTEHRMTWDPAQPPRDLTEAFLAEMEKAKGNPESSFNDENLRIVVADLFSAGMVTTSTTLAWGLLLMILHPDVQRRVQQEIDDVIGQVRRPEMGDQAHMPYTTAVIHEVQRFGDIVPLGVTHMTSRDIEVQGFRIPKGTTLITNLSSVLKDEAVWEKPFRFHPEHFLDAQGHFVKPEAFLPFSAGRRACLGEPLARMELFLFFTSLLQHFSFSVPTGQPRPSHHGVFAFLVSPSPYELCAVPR
Protocol: (§1) Human liver microsomes containing cytochrome P450 (0.253 mg/mL protein) were incubated with test compounds (0.05-50 μM), CYPs substrates (10 μM […], 5 μM diclofenac, 30 μM mephenytoin, 5 μM dextromethorphan hydrobromide and 2 μM midazolam) and 1.0 mM NADP at 37° C. for 10 min. Naphthoflavone, sulfaphenazole, N-3-benzylnirvanol, quinidine and ketoconazole were used as reference inhibitors.

CYP 2C19 = CYP 2C19 (Homo sapiens (Human), UniProt P33261); type: in vitro ADME; conditions: microsomes, 10 min
Sequence of CYP 2C19 (P33261 whole entry): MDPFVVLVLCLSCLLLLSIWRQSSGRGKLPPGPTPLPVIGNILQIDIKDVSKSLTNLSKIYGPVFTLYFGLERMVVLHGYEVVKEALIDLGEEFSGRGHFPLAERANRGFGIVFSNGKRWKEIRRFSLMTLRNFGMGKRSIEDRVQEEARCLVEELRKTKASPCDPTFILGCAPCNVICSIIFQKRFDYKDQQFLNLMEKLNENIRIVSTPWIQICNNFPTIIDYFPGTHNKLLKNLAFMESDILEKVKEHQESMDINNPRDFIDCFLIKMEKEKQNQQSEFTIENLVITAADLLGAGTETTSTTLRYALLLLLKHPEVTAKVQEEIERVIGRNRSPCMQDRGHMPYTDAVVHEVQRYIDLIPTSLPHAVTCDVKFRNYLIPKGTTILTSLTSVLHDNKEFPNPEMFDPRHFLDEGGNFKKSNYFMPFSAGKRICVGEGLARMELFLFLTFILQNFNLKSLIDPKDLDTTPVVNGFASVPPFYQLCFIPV
Protocol: as §1

CYP 2C9 = CYP 2C9 (Homo sapiens (Human), UniProt P11712); type: in vitro ADME; conditions: microsomes, 10 min
Sequence of CYP 2C9 (P11712 whole entry): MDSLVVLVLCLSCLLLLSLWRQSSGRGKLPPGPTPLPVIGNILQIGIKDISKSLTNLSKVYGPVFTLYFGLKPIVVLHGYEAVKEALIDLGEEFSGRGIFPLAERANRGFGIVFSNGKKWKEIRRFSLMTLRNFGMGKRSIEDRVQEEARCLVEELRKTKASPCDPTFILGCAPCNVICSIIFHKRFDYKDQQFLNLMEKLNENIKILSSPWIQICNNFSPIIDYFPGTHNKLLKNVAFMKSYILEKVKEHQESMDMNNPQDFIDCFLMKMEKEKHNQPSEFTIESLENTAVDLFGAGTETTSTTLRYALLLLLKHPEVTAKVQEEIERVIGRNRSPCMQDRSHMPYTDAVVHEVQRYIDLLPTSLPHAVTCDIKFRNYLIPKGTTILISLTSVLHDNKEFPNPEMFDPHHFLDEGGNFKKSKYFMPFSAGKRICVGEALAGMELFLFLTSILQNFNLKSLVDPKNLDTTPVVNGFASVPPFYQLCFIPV
Protocol: as §1

CYP 3A4 = CYP 3A4 (Homo sapiens (Human), UniProt P08684); type: in vitro ADME; conditions: microsomes, 10 min
Sequence of CYP 3A4 (P08684 whole entry): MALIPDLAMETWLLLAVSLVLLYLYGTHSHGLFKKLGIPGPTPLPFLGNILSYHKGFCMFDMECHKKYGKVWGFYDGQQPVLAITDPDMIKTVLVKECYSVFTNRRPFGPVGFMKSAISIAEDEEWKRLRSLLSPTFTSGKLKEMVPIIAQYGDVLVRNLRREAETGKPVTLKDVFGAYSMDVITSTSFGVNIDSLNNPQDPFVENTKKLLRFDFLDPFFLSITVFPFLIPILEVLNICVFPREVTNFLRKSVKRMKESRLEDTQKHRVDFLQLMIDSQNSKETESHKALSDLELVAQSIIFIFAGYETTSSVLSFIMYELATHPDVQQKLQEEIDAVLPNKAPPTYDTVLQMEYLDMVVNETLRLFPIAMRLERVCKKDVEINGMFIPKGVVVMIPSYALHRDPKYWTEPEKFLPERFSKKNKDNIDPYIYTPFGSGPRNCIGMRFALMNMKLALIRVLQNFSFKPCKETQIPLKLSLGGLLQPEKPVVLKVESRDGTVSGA
Protocol: as §1

CYP1A2 = CYP1A2 (Homo sapiens (Human), UniProt P05177); assay: in vitro; type: in vitro ADME; conditions: microsomes; for IC50: 10 min
Sequence of CYP1A2 (P05177 whole entry): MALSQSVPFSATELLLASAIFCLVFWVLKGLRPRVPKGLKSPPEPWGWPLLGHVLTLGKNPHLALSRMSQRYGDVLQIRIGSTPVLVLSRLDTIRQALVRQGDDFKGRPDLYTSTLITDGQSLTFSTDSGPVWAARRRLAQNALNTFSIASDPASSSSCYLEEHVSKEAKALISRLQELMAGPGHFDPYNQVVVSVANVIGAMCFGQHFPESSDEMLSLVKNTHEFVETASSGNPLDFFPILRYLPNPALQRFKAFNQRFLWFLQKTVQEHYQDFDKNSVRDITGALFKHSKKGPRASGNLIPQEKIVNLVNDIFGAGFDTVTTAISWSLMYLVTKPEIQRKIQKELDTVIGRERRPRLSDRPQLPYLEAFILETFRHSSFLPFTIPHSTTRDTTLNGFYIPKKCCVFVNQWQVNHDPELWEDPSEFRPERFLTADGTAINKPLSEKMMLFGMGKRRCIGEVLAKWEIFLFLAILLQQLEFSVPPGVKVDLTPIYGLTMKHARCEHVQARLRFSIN
Protocol: as §1

GHSR-1a = GHSR-1a (Homo sapiens (Human), UniProt Q92847); assay: Agonistic activity for GHSR-1a, FLIPR calcium assay; type: cell-based; conditions: agonist activity assay, Flp In-CHO-GHSR Stable Pool cells, FLIPR calcium 6 kit; read-out: The activity (IC50) of polypeptide compounds for GHSR-1a
Sequence of GHSR-1a (Q92847 whole entry): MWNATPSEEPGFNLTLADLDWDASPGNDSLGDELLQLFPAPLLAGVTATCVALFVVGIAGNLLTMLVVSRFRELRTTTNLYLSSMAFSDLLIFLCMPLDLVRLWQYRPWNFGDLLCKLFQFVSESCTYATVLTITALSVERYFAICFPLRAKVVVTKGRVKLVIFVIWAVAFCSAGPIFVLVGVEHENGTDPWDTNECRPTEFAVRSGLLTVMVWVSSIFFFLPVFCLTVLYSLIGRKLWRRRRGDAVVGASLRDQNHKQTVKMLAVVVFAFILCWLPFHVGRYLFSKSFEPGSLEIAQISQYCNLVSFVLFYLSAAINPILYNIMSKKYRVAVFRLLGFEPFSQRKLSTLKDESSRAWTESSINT
Excerpt: The use of recombinant expression of GHSR provides several advantages; for example, the receptor can be expressed in a determined cell system, so that it is easier to distinguish between the reactions of the compounds with GHSR and the reactions with other receptors. For example, cell lines such as HEK293, COS7 and CHO that […] can be used to express GHSR, and the same cell lines without expression vectors are used as controls.
The activity of GHSR-1a can be measured using different techniques, for example, by detecting the change in the intracellular conformation of GHSR, the change in G-protein coupling activity, and/or the change in intracellular messengers. Techniques such as measuring intracellular Ca^2+ are preferably used to measure the activity of GHSR-1a. Examples of techniques known in the art that can be used to measure Ca^2+ include the use of FLIPR® calcium ion assay kits, among others. The FLIPR® calcium ion assay kits use a calcium ion sensitive indicator and a masking dye to ensure that a researcher carries out high-sensitivity fluorescent screening for G protein-coupled receptors, ion channels and other calcium ion sensitive targets. This experiment used FLIPR calcium 6 assay kits and FLIPR calcium 6-QF assay kits.
• a) Cell line: Flp In-CHO-GHSR Stable Pool; • b) Complete medium: F12K+10% fetal bovine serum+1×penicillin-streptomycin (PS)+600 μg/mL hygromycin B; • c) Cell seeding medium: F12K+10% fetal bovine serum. • d) Assay buffer: 1× HBSS+20 mM HEPES. • e) […] component A: Assay buffer and component A were left at room temperature (RT), 10 mL of buffer was added to component A, and the mixture was vortexed for 1-2 min and stored at −20° C.
• a) Compound stock solutions: the powders from in-house synthesis were made into 10 mM stock solutions in DMSO according to the standard protocol. • b) Compound storage: all compounds in DMSO were stored in room temperature desiccators for short-term storage (at most 4 months). The remaining compounds were left at −20 ° C. for long-term storage.
• a) Flp In-CHO-GHSR Stable Pool cells were cultured in complete medium. • b) The cells were placed in […] cell seeding medium in a 384-well cell culture plate (Corning, 3764) at 7k cells/well and cultured overnight at 37° C. with 5% CO2. • c) 20× component A was thawed at room temperature, diluted with assay buffer to 2×, and left at RT. • d) The Petri dish was taken out of the incubator and equilibrated at room temperature for 10 min. The medium was changed to […]. After the final wash, 20 μL of buffer was kept in each well, 20 μL of 2× component A was then added to each well, and the plate was incubated at 37° C. for 3-5 s. • e) 10 μL of 5× compound was added to the 384-well cell culture plate, and data collection was immediately performed using FLIPR Tetra.
• 1) Z′ factor=1−3×(SDMax+SDMin)/(MeanMax−MeanMin); • 2) CVMax=(SDMax/MeanMax)×100%; • 3) CVMin=(SDMin/MeanMin)×100%; • 4) S/B=Singal/Background; • 5) Calculation formula for IC50: • Y=Bottom+(Top−Bottom)/(1+10^((LogIC50−X)×HillSlope)) • X: log value of compound concentration; Y: Activation % or Inhibition %

Row | IC50 (CYP 2D6) | IC50 (CYP 2C19) | IC50 (CYP 2C9) | IC50 (CYP 3A4) | IC50 (CYP1A2) | IC50 (GHSR-1a) | IC50 at 10 min (CYP1A2) | Structure (SMILES)
1 | > 50 µM | > 50 µM | > 50 µM | > 50 µM | > 50 µM | 0.023 µM |  | NC(=O)C1(NC(=O)[C@H](Cc2ccccc2)NC(=O)[C@@H](Cc2c[nH]c3ccccc23)NC(=O)[C@@H](Cc2csc3ccccc23)NC(=O)[C@@H]2CCC[C@@H]2N)CCNCC1 [Compound 21] (X1-[dBta][dW]F[Api]-NH2)
2 | > 50 µM | > 50 µM | > 50 µM | 33.4 µM | > 50 µM | 0.0203 µM |  | NCC(=O)N[C@H](Cc1csc2ccccc12)C(=O)N[C@H](Cc1c[nH]c2ccccc12)C(=O)N[C@@H](Cc1ccccc1)C(=O)NC1(C(N)=O)CCNCC1 [Compound 11] (H-G[dBta][dW]F[Api]-NH2)
3 | > 50 µM | > 50 µM | > 50 µM | > 50 µM |  | 0.0351 µM | > 50 µM | NC(=O)[C@H](Cc1ccccc1)NC(=O)[C@@H](Cc1c[nH]c2ccccc12)NC(=O)[C@@H](Cc1csc2ccccc12)NC(=O)[C@@]12CNC[C@@H]1C2 [Compound 80]
4 | > 50 µM | > 50 µM | > 50 µM | > 50 µM | > 50 µM | 0.0181 µM |  | NC(=O)C1(NC(=O)[C@H](Cc2ccccc2)NC(=O)[C@@H](Cc2c[nH]c3ccccc23)NC(=O)[C@@H](Cc2csc3ccccc23)NC(=O)[C@H]2CCN2)CCNCC1 [Compound 25] (H-[dAze][dBta][dW]F[Api]-NH2)
5 | 24.8 µM | > 50 µM | > 50 µM | 2.55 µM | > 50 µM | 0.0024 µM |  | CC[C@@H](N)C(=O)N[C@H](Cc1csc2ccccc12)C(=O)N[C@H](Cc1c[nH]c2ccccc12)C(=O)N[C@@H](Cc1ccccc1)C(=O)N[C@H](CCCCN)C(N)=O [Compound 32] (H-[dAbu][dBta][dW]F[dK]-NH2)
6 | > 50 µM | > 50 µM | > 50 µM | > 50 µM | > 50 µM | 0.0195 µM |  | NC(=O)C1(NC(=O)[C@H](Cc2ccccc2)NC(=O)[C@@H](Cc2c[nH]c3ccccc23)NC(=O)[C@@H](Cc2csc3ccccc23)NC(=O)[C@H]2CCNC2)CCNCC1 [Compound 26] ({Pyrrolidine3carbonyl(3S)}-[dBta][dW]F[Api]-NH2)
7 | > 50 µM | > 50 µM | > 50 µM | > 50 µM | > 50 µM | 0.0435 µM |  | CC(C)[C@@H](N)C(=O)N[C@H](Cc1csc2ccccc12)C(=O)N[C@H](Cc1c[nH]c2ccccc12)C(=O)N[C@@H](Cc1ccccc1)C(=O)NC1(C(N)=O)CCNCC1 [Compound 13] (H-[dV][dBta][dW]F[Api]-NH2)
8 | > 50 µM | > 50 µM | > 50 µM | > 50 µM | > 50 µM | 0.0139 µM |  | NCCCC[C@@H](NC(=O)[C@H](Cc1ccccc1)NC(=O)[C@@H](Cc1c[nH]c2ccccc12)NC(=O)[C@@H](Cc1csc2ccccc12)NC(=O)C1(N)COC1)C(N)=O [Compound 54] (H-[Ac4c(3-oxa)][dBta][dW]F[dK]-NH2)
9 | > 50 µM | > 50 µM | > 50 µM | 20 µM | > 50 µM | 0.0035 µM |  | CC[C@@H](N)C(=O)N[C@H](Cc1csc2ccccc12)C(=O)N[C@H](Cc1c[nH]c2ccccc12)C(=O)N[C@@H](Cc1ccccc1)C(=O)NC1(C(N)=O)CCNCC1 [Compound 2] (H-[dAbu][dBta][dW]F[Api]-NH2)
10 | > 50 µM | > 50 µM | > 50 µM | > 50 µM |  | 0.0039 µM | > 50 µM | NC(=O)[C@H](Cc1ccccc1)NC(=O)[C@@H](Cc1c[nH]c2ccccc12)NC(=O)[C@@H](Cc1csc2ccccc12)NC(=O)[C@H]1CCNC1 [Compound 76]
11 | > 50 µM | > 50 µM | > 50 µM | > 50 µM | > 50 µM | 0.0033 µM |  | NC(=O)C1(NC(=O)[C@H](Cc2ccccc2)NC(=O)[C@@H](Cc2c[nH]c3ccccc23)NC(=O)[C@@H](Cc2csc3ccccc23)NC(=O)C2CNC2)CCNCC1 [Compound 23] (Azetidine3carboxylic-[dBta][dW]F[Api]-NH2)
12 | > 50 µM | > 50 µM | > 50 µM | > 50 µM | > 50 µM | 0.0112 µM |  | NCCCC[C@@H](NC(=O)[C@H](Cc1ccccc1)NC(=O)[C@@H](Cc1c[nH]c2ccccc12)NC(=O)[C@@H](Cc1csc2ccccc12)NC(=O)C1CNC1)C(N)=O [Compound 53] (Azetidine3carboxylic-[dBta][dW]F[dK]-NH2)
13 | 31.1 µM | > 50 µM | > 50 µM | 8.82 µM | > 50 µM | 0.0023 µM |  | NC(=O)C1(NC(=O)[C@H](Cc2ccccc2)NC(=O)[C@@H](Cc2c[nH]c3ccccc23)NC(=O)[C@@H](Cc2csc3ccccc23)NC(=O)[C@@H]2CCCN2)CCNCC1 [Compound 15] (H-P[dBta][dW]F[Api]-NH2)
14 | > 50 µM | > 50 µM | > 50 µM | > 50 µM |  | 0.004 µM | > 50 µM | NCC1(C(=O)N[C@H](Cc2csc3ccccc23)C(=O)N[C@H](Cc2c[nH]c3ccccc23)C(=O)N[C@@H](Cc2ccccc2)C(N)=O)CCC1 [Compound 72]
15 | > 50 µM | > 50 µM | > 50 µM | > 50 µM |  | 0.0033 µM | > 50 µM | NC(=O)[C@H](Cc1ccccc1)NC(=O)[C@@H](Cc1c[nH]c2ccccc12)NC(=O)[C@@H](Cc1csc2ccccc12)NC(=O)[C@@H]1CCC[C@@H]1N [Compound 71]
16 | > 50 µM | > 50 µM | > 50 µM | > 50 µM | > 50 µM | 0.0134 µM |  | NC(=O)C1(NC(=O)[C@H](Cc2ccccc2)NC(=O)[C@@H](Cc2c[nH]c3ccccc23)NC(=O)[C@@H](Cc2csc3ccccc23)NC(=O)C23CNC[C@@H]2C3)CCNCC1 (stereo partly drawn) [Compound 30] (X2-[dBta][dW]F[Api]-NH2)
17 | > 50 µM | > 50 µM | > 50 µM | > 50 µM | > 50 µM | 0.0038 µM |  | NCCCC[C@@H](NC(=O)[C@H](Cc1ccccc1)NC(=O)[C@@H](Cc1c[nH]c2ccccc12)NC(=O)[C@@H](Cc1csc2ccccc12)NC(=O)C1(CN)CCC1)C(N)=O [Compound 52] (X3-[dBta][dW]F[dK]-NH2)
18 | 35.4 µM | > 50 µM | > 50 µM | 19.8 µM | > 50 µM | 0.0007 µM |  | NCCC(=O)N[C@H](Cc1csc2ccccc12)C(=O)N[C@H](Cc1c[nH]c2ccccc12)C(=O)N[C@@H](Cc1ccccc1)C(=O)NC1(C(N)=O)CCNCC1 [Compound 16] (H-[βAla][dBta][dW]F[Api]-NH2)
19 | > 50 µM | > 50 µM | > 50 µM | > 50 µM | > 50 µM | 0.0028 µM |  | NCCCC[C@@H](NC(=O)[C@H](Cc1ccccc1)NC(=O)[C@@H](Cc1c[nH]c2ccccc12)NC(=O)[C@@H](Cc1csc2ccccc12)NC(=O)CCN)C(N)=O [Compound 46] (H-[βAla][dBta][dW]F[dK]-NH2)
